In patent publication US9198918B2, “Benzoxazepin PI3K inhibitor compounds and methods of use” (Genentech, Inc., priority 2009, dated 2015):
Each block holds one compound with its values, some of them ahead of it.

Experiments:
PI3K alpha (p110 alpha) = target: T1, PI3K alpha (p110 alpha) (Homo sapiens, UniProt P42336); experiment: PI3K p110α (alpha) binding assay (Example 901); settings: for IC50: read-out: IC50, inhibition of PI3K alpha (binding to p110 alpha)
T1 construct: purchased Upstate Cell Signaling Solutions, Charlottesville, Va
T1 sequence (P42336 whole entry): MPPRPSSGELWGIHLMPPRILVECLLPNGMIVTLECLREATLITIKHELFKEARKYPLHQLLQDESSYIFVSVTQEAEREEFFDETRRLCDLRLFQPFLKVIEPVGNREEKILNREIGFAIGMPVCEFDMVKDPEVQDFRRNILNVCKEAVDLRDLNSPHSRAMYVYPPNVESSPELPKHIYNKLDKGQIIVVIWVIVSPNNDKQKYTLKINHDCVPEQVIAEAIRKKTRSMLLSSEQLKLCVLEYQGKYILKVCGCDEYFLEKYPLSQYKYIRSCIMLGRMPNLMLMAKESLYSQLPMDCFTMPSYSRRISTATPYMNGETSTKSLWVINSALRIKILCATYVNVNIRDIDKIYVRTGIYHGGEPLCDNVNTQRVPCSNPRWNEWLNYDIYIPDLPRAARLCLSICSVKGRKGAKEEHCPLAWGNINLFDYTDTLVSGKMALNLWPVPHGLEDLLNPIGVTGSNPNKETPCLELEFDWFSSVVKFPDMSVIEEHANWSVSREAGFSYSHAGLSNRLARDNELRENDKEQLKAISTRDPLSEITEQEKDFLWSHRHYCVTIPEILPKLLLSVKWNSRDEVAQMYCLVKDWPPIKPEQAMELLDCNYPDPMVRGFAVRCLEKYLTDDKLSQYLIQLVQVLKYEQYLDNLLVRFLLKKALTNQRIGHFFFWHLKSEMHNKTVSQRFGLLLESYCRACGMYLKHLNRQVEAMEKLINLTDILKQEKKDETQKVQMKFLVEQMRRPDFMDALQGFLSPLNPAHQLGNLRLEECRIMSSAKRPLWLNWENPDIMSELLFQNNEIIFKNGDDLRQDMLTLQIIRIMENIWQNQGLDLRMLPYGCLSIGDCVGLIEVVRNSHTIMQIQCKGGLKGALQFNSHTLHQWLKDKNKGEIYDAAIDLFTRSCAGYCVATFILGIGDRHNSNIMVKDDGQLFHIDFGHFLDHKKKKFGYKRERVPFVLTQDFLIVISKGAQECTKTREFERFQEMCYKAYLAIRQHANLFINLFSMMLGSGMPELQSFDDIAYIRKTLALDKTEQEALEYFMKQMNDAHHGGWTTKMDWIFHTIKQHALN
T1 sequence (P27986 whole entry partner): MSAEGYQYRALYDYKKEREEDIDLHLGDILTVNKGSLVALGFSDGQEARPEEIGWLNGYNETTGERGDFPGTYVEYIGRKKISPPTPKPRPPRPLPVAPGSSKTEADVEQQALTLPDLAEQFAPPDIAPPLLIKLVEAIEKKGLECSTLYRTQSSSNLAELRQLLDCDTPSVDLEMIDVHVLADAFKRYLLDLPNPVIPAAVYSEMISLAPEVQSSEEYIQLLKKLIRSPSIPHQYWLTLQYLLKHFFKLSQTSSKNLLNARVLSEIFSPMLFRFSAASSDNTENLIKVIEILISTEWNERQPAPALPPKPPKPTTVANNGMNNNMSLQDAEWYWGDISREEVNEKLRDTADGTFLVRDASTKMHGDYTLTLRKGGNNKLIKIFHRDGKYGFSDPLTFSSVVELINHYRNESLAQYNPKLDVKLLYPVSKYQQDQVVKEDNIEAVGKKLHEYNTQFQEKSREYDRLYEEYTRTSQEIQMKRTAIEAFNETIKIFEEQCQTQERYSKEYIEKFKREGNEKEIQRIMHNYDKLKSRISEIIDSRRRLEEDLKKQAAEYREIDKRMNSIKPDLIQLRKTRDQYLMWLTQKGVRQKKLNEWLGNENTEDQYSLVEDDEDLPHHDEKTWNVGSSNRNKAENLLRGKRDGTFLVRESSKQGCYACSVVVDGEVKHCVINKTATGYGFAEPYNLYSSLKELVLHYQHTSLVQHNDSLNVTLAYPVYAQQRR
From the text: Determination of the PI3 kinase activity of a Formula I compound is possible by a number of direct and indirect detection methods.

PC3 = experiment: CellTiter-Glo cell proliferation assay, PC3; type: cell-based; settings: Homo sapiens, PC-3, Prostate, mutation status PTEN
Procedure: (§1) Efficacy of Formula I compounds was measured by a cell proliferation assay employing the following protocol (Promega Corp. Technical Bulletin TB288; Mendoza et al (2002) Cancer Res. 62:5485-5488):
(§2) 1. An aliquot of 100 μl of cell culture containing about 104 cells (PC3, Detroit562, or MDAMB361.1) in medium was deposited in each well of a 384-well, opaque-walled plate.
(§3) 2. Control wells were prepared containing medium and without cells.
(§4) 3. The compound was added to the experimental wells and incubated for 3-5 days.
(§5) 4. The plates were equilibrated to room temperature for approximately 30 minutes.
(§6) 5. A volume of CellTiter-Glo Reagent equal to the volume of cell culture medium present in each well was added.
(§7) 6. The contents were mixed for 2 minutes on an orbital shaker to induce cell lysis.
(§8) 7. The plate was incubated at room temperature for 10 minutes to stabilize the luminescence signal.
(§9) 8. Luminescence was recorded and reported in graphs as RLU=relative luminescence units.
(§10) Alternatively, cells were seeded at optimal density in a 96 well plate and incubated for 4 days in the presence of test compound. Alamar Blue™ was subsequently added to the assay medium, and cells were incubated for 6 hr before reading at 544 nm excitation, 590 nm emission. EC50 values were calculated using a sigmoidal dose response curve fit. The term EC50 refers to the half maximal effective concentration and is the concentration at which a drug induces a response halfway between the baseline and maximum after some specified exposure time. It is commonly used as a measure of drug potency.
(§11) The anti-proliferative effects of Formula I exemplary compounds were measured by the CellTiter-Glo® Assay against various tumor cell lines, including the following: […]

MDA-MB-361.1 = experiment: CellTiter-Glo cell proliferation assay, MDA-MB-361.1; type: cell-based; settings: Breast, mutation status PI3K
Procedure: as §1, §2, §3, §4, §5, §6, §7, §8, §9, §10, §11

AU565 = experiment: CellTiter-Glo cell proliferation assay, AU565; type: cell-based; settings: Homo sapiens, Breast, mutation status WT
Procedure: as §1, §2, §3, §4, §5, §6, §7, §8, §9, §10, §11

EVSA-T = experiment: CellTiter-Glo cell proliferation assay, EVSA-T; type: cell-based; settings: Homo sapiens, Breast, mutation status PTEN
Procedure: as §1, §2, §3, §4, §5, §6, §7, §8, §9, §10, §11

A375 = experiment: CellTiter-Glo cell proliferation assay, A375; type: cell-based; settings: Homo sapiens, A-375, Melanoma, mutation status B-Raf
Procedure: as §1, §2, §3, §4, §5, §6
6. […]
as §8, §9
(§12) Alternatively, cells were seeded at optimal density in a 96 well plate and incubated for 4 days in the presence of test compound. Alamar Blue™ was subsequently added to the assay medium, and cells were incubated for 6 hr before reading at 544 nm excitation, 590 nm emission. EC50 values were calculated using a sigmoidal dose response curve fit. […]
as §11

BT474 = experiment: CellTiter-Glo cell proliferation assay, BT474; type: cell-based; settings: Homo sapiens, BT-474, Breast, mutation status PI3K(amped)
Procedure: as §1, §2, §3, §4, §5, §6, §7, §8, §9, §10, §11

KPL4 = experiment: CellTiter-Glo cell proliferation assay, KPL4; type: cell-based; settings: Breast, mutation status PI3K
Procedure: as §1, §2, §3, §4, §5, §6, §7, §8, §9, §10, §11

T47D = experiment: CellTiter-Glo cell proliferation assay, T47D; type: cell-based; settings: Homo sapiens, Breast, mutation status PI3K
Procedure: as §1, §2, §3, §4, §5, §6, §7, §8, §9, §10, §11

HCC1954 = experiment: CellTiter-Glo cell proliferation assay, HCC1954; type: cell-based; settings: Homo sapiens, Breast, mutation status PI3K
Procedure: as §1, §2, §3, §4, §5, §6, §7, §8, §9, §10, §11

MFM223 = experiment: CellTiter-Glo cell proliferation assay, MFM223; type: cell-based; settings: Homo sapiens, MFM-223, Breast, mutation status PI3K
Procedure: as §1, §2, §3, §4, §5, §6, §7, §8, §9, §10, §11

SKBR3 = experiment: CellTiter-Glo cell proliferation assay, SKBR3; type: cell-based; settings: Homo sapiens, SK-BR-3, Breast, mutation status WT
Procedure: as §1, §2, §3, §4, §5, §6
6. […]
as §8, §9, §12, §11

H2122 = experiment: CellTiter-Glo cell proliferation assay, H2122; type: cell-based; settings: Homo sapiens, NCI-H2122, Lung(NSCLC), mutation status K-RAS
Procedure: as §1, §2, §3, §4, §5, §6, §7, §8, §9, §10, §11

H520 = experiment: CellTiter-Glo cell proliferation assay, H520; type: cell-based; settings: Homo sapiens, NCI-H520, Lung(NSCLC), mutation status PTEN
Procedure: as §1, §2, §3, §4, §5, §6
6. […]
as §8, §9, §12, §11

U87MG = experiment: CellTiter-Glo cell proliferation assay, U87MG; type: cell-based; settings: Homo sapiens, U-87 MG, Glioma, mutation status PTEN
Procedure: as §1, §2, §3, §4, §5, §6
6. […]
as §8, §9, §12, §11

KM12 = experiment: CellTiter-Glo cell proliferation assay, KM12; type: cell-based; settings: Homo sapiens, Colon, mutation status PTEN
Procedure: as §1, §2, §3, §4, §5, §6
6. […]
as §8, §9, §12, §11

MDST8 = experiment: CellTiter-Glo cell proliferation assay, MDST8; type: cell-based; settings: Colon, mutation status PTEN
Procedure: as §1, §2, §3, §4, §5, §6
6. […]
as §8, §9, §12, §11

IC50 (PI3K alpha (p110 alpha)): 3 nM
SMILES: NC(=O)c1ccc2c(c1)-c1nc(-c3ncnn3-c3ccccc3Cl)cn1CCO2 [compound 102, 2-(1-(2-chlorophenyl)-1H-1,2,4-triazol-5-yl)-5,6-dihydrobenzo[f]imidazo[1,2-d][1,4]oxazepine-10-carboxamide]

IC50 (PI3K alpha (p110 alpha)): 1.4 nM
SMILES: Cc1nc(-c2cn3c(n2)-c2ccc(-c4cnn(C(C)(C)C(=O)O)c4)cc2OCC3)n(C(C)C)n1 [compound 251, 2-(4-(2-(1-isopropyl-3-methyl-1H-1,2,4-triazol-5-yl)-5,6-dihydrobenzo[f]imidazo[1,2-d][1,4]oxazepin-9-yl)-1H-pyrazol-1-yl)-2-methylpropanoic acid]

IC50 (PI3K alpha (p110 alpha)): 0.32 nM
SMILES: CC(C)n1ncnc1-c1cn2c(n1)-c1cnc(N3CCC[C@H]3C(N)=O)cc1OCC2 [compound 338, (2S)-1-(2-(1-isopropyl-1H-1,2,4-triazol-5-yl)-5,6-dihydroimidazo[1,2-d]pyrido[3,4-f][1,4]oxazepin-9-yl)pyrrolidine-2-carboxamide]

EC50 (PC3): 999 nM
EC50 (MDA-MB-361.1): 1050 nM
SMILES: NC(=O)c1ccc2c(c1)OCCc1cn(-c3ncnn3-c3ccc(F)cc3F)nc1-2 [compound 107, 2-(1-(2,4-difluorophenyl)-1H-1,2,4-triazol-5-yl)-4,5-dihydrobenzo-2H-oxepino[4,5-d]pyrazole-8-carboxamide]
EC50 (AU565): 259 nM
EC50 (EVSA-T): 1410 nM

Ki (PI3K alpha (p110 alpha); read-out: Ki, inhibition of PI3K alpha (binding to p110 alpha)): 2.1 nM
SMILES: Cc1nc(-c2cn3c(n2)-c2ccc(OC4COC4)cc2OCC3)n(C(C)C)n1 [compound 520, 2-(1-isopropyl-3-methyl-1H-1,2,4-triazol-5-yl)-9-(oxetan-3-yloxy)-5,6-dihydrobenzo[f]imidazo[1,2-d][1,4]oxazepine]

IC50 (PI3K alpha (p110 alpha)): 0.91 nM
SMILES: Clc1ccccc1-n1ncnc1-n1cc2c(n1)-c1cc(C3CCNCC3)ccc1OCC2 [compound 154, 2-(1-(2-chlorophenyl)-1H-1,2,4-triazol-5-yl)-9-piperid-4-yl-4,5-dihydrobenzo-2H-oxepino[4,5-d]pyrazole]

EC50 (MDA-MB-361.1): 178 nM
EC50 (A375): 10000 nM
EC50 (BT474): 86 nM
EC50 (T47D): 45 nM
EC50 (HCC1954): 128 nM
SMILES: Cc1nc(-c2cn3c(n2)-c2ccc(-c4cnn(C(C)(C)C(N)=O)c4)cc2OCC3)n(C(C)C)n1 [compound 196, 2-(4-(2-(1-isopropyl-3-methyl-1H-1,2,4-triazol-5-yl)-5,6-dihydrobenzo[f]imidazo[1,2-d][1,4]oxazepin-9-yl)-1H-pyrazol-1-yl)-2-methylpropanamide]
EC50 (KPL4): 16 nM
EC50 (AU565): 152 nM

IC50 (PI3K alpha (p110 alpha)): 4.4 nM
SMILES: CC(C)n1nc(N)nc1-c1cn2c(n1)-c1ccc(F)cc1OCC2 [compound 253, 5-(9-fluoro-5,6-dihydrobenzo[f]imidazo[1,2-d][1,4]oxazepin-2-yl)-1-isopropyl-1H-1,2,4-triazol-3-amine]

SMILES: Cc1nc(-c2cn3c(n2)-c2ccc(-c4cnn(CCO)c4)cc2OCC3)n(C(C)C)n1 [compound 186, 2-(4-(2-(1-isopropyl-3-methyl-1H-1,2,4-triazol-5-yl)-5,6-dihydrobenzo[f]imidazo[1,2-d][1,4]oxazepin-9-yl)-1H-pyrazol-1-yl)ethanol]
EC50 (PC3): 1300 nM
EC50 (MFM223): 1100 nM
EC50 (MDA-MB-361.1): 710 nM
EC50 (SKBR3): 860 nM
EC50 (H2122): 2950 nM
EC50 (BT474): 324 nM
EC50 (KPL4): 88 nM
EC50 (T47D): 133 nM
EC50 (AU565): 470 nM
EC50 (EVSA-T): 2000 nM
EC50 (HCC1954): 420 nM

IC50 (PI3K alpha (p110 alpha)): 58 nM
SMILES: Fc1ccc(-n2ncnc2-n2cc3c(n2)-c2ccc(Br)cc2OCC3)c(F)c1 [compound 103, 2-(1-(2,4-difluorophenyl)-1H-1,2,4-triazol-5-yl)-8-bromo-4,5-dihydrobenzo-2H-oxepino[4,5-d]pyrazole]

EC50 (H520): 1290 nM
EC50 (PC3): 762 nM
EC50 (U87MG): 5770 nM
EC50 (MDA-MB-361.1): ≥ 10000 nM
EC50 (H2122): ≥ 10000 nM
EC50 (BT474): 1680 nM
EC50 (T47D): 762 nM
EC50 (HCC1954): 3390 nM
SMILES: CC(C)n1ncnc1-c1cn2c(n1)-c1ccc(-c3cn(CCO)cn3)cc1OCC2 [compound 207, 2-(4-(2-(1-isopropyl-1H-1,2,4-triazol-5-yl)-5,6-dihydrobenzo[f]imidazo[1,2-d][1,4]oxazepin-9-yl)-1H-imidazol-1-yl)ethanol]
EC50 (MFM223): 7250 nM
EC50 (KM12): ≥ 10000 nM
EC50 (KPL4): 1360 nM
EC50 (AU565): 3730 nM
EC50 (MDST8): 7790 nM
EC50 (EVSA-T): 1770 nM

IC50 (PI3K alpha (p110 alpha)): 0.37 nM
SMILES: CNC(=O)C(C)(C)N1CCC(c2ccc3c(c2)OCCn2cc(-c4ncnn4C(C)C)nc2-3)CC1 [compound 248, 2-(4-(2-(1-isopropyl-1H-1,2,4-triazol-5-yl)-5,6-dihydrobenzo[f]imidazo[1,2-d][1,4]oxazepin-9-yl)piperidin-1-yl)-N,2-dimethylpropanamide]

IC50 (PI3K alpha (p110 alpha)): 2 nM
SMILES: CC(C)NC(=O)CN1CC(c2ccc3c(c2)OCCn2cc(-c4ncnn4C(C)C)nc2-3)C1 [compound 200, N-isopropyl-2-(3-(2-(1-isopropyl-1H-1,2,4-triazol-5-yl)-5,6-dihydrobenzo[f]imidazo[1,2-d][1,4]oxazepin-9-yl)azetidin-1-yl)acetamide]

IC50 (PI3K alpha (p110 alpha)): 22 nM
SMILES: CC(C)n1ncnc1-c1cc2n(n1)-c1cc(C3CN(C(C)(C)CO)C3)ccc1OCC2 [compound 170, 2-(3-(2-(1-isopropyl-1H-1,2,4-triazol-5-yl)-4,5-dihydrobenzo[b]pyrazolo[1,5-d][1,4]oxazepin-9-yl)azetidin-1-yl)-2-methylpropan-1-ol]

IC50 (PI3K alpha (p110 alpha)): 0.66 nM
SMILES: CS(=O)(=O)CCN1CC(c2ccc3c(c2)OCCc2cn(-c4ncnn4-c4ccc(F)cc4F)nc2-3)C1 [compound 171, 2-(1-(2,4-difluorophenyl)-1H-1,2,4-triazol-5-yl)-8-(1-(2-(methylsulfonyl)ethyl)azetidin-3-yl)-4,5-dihydrobenzo-2H-oxepino[4,5-d]pyrazole]

IC50 (PI3K alpha (p110 alpha)): 770 nM
SMILES: CN(C(=O)c1cc2n(n1)-c1ccccc1OCC2)c1ccc(F)cc1F [compound 101, N-(2,4-difluorophenyl)-N-methyl-4,5-dihydrobenzo[b]pyrazolo[1,5-d][1,4]oxazepine-2-carboxamide]
